# Legend:
# glaucoma patients [1] = test: Clinical trial: effect of ophthalmic ointment comprising 0.01 % active substance on intraocular pressure (I.O.P.); conditions: human, in vivo
# Experimental: (§1) The clinical tests on glaucoma patients were performed with an ophthalmic ointment comprising 0.01 % and 0.025 % of dihydro­ergotoxine methanesulfonate or bromocryptine methanesulfonate.
# Effect of ophthalmic ointment comprising 0.01 % of dihydroer­gotoxine methanesulfonate or bromocryptine methanesulfonate on the intraocular pressure (I.O.P.) in glaucoma patients
# The effect of the ophthalmic ointment comprising 0.01 % of dihydroergotoxine (as base and as methanesulfonate salt) and of bromocryptine methanesulfonate on the intraocular pressure in both eyes was tested in five male and three female glaucoma patients aged from 34 to 62 years.
# glaucoma patients [2] = conditions: human, in vivo
# Experimental: as §1
# The effect of the ophthalmic ointment comprising 0.025 % of dihydroergotoxine methanesulfonate or bromocryptine methane­sulfonate on the intraocular pressure in both eyes was tested in four male and three female glaucoma patients, agend from 31 to 64 years.
# The ointment was applied into the conjunctival sac in the morning and in the evening. Before application, the I.O.P. was measured. This procedure was repeated for five days.
compound,measurement,setting,value
CC(C)C[C@H]1C(=O)N2CCC[C@H]2[C@]2(O)O[C@](NC(=O)[C@@H]3C=C4c5cccc6[nH]c(Br)c(c56)C[C@H]4N(C)C3)(C(C)C)C(=O)N12 [bromocryptine methanesulfonate],maximum reduction of I.O.P.,glaucoma patients [1],21%
same,time for which the effect (reduction of I.O.P.) was present,glaucoma patients [1],at least five
same,I.O.P. from which it decreased,glaucoma patients [2],4.00 kPa
same,I.O.P. to which it decreased,glaucoma patients [2],2.67 kPa
same,reduction of intraocular pressure,glaucoma patients [2],30%
same,undesired side effects,glaucoma patients [2],No undesired side effects
